Values of other authors in patent publication US20120321577A1, “Skin-whitening composition containing tyrosinase inhibitor” (priority 2011, published 2012).

Conditions: conventionally

## NC[C@H]1CC[C@H](C(=O)O)CC1 [tranexamic acid]
  concentration needed to give whitening effect: higher than 3%
